Starred links: 1 amine or outer side, 2 acyl side, 3 side chain; linkers in the order of their positions; H or OH if unused. Non-standard residues stand in square brackets, D forms with d. Residues, ends and D or L forms follow the SMILES beside them. ξ: configuration not given here. X2 = O=C([C@H](Cc1noc(=O)[nH]1)N[*:1])[*:2]; ξAla(tetrazol-5-yl) = NC(Cc1nnn[nH]1)C(=O)O; Nle = CCCC[C@H](N)C(=O)O; Aib = CC(C)(N)C(=O)O
What was measured:
[1] = Stability test 1: survival rate of peptide in phosphate buffer (pH 7.0) after storage, HPLC; type: physicochemical; details: 100 μM peptide
Protocol: The 1.0 mM peptide solutions were then diluted with phosphate buffer to 100 μM. […] The prepared peptide solutions were incubated for one month or 2 months in a 40° C. thermostatic bath to obtain stored samples.
Using the total weight of the aqueous peptide solution and storage vessel as the specimen weight, measurements were recorded as the specimen weights before storage and the specimen weights after storage under different storage conditions. The empty weight of the storage vessel was also measured, and the moisture permeability was determined by the following formula.
After stirring the standard sample and the stored samples with a vortex mixer, each peptide solution was transferred to an HPLC vial (Deactivated Qsert vial by Waters Co.). Reverse-phase HPLC (HPLC system: Prominence by Shimadzu Corp.) was conducted under the conditions shown in Table 3 below for analysis of the peptide solutions, and chromatograms were obtained.
The peak area value for the peptide in the chromatogram was calculated, and the survival rate (survival rate before correction for water) was calculated using formula (2). The survival rate after correction for water was also calculated from the survival rate before correction for water using formula (3) to take into account the permeability of the container.
Peptide solutions prepared by the same method as [Measuring sample preparation 1] for the peptides synthesized in Example 2 (peptides 13 to 16) were incubated for 2 weeks and 8 weeks in a thermostatic bath at 40° C. to obtain stored samples.
Peptide solutions prepared by the same method as [Measuring sample preparation 1] for the peptides synthesized in Example 2 (peptides 17 to 21) were incubated for 4 weeks in a thermostatic bath at 40° C. to obtain stored samples.
A peptide solution prepared by the same method as [Measuring sample preparation 1] for peptide 22 synthesized in Example 2 was incubated for 1 week and 4 weeks in a thermostatic bath at 40° C. to obtain stored samples.

[2] = as above; type: physicochemical; details: 100 μM peptide, 0.1% phosphate buffer pH 7.0, head prints 80° C., 8 weeks (Table 4)
[3] = 100 μM peptide, Tris buffer pH 7.0, 60° C.
Protocol: The solution was filtered with a Chromatdisk (product of Merck Millipore, Millex-GV, 0.22 μm). The filtrate was diluted to 100 μM with Tris buffer (pH 7.0) and dispensed into a tube (Protein LoBind Tube by Eppendorf Co.). The prepared peptide solutions were incubated for 1 week or 2 weeks in a 60° C. thermostatic bath to obtain stored samples. A simultaneously prepared sample among the peptide solutions that was not stored was used as a standard sample (initial sample). The standard sample and the stored samples were stored at −30° C. until sample analysis.
• Column: XSelect CSH C18 by Waters Co., 5 μm, 4.6×250 mm • Guard column: XSelect CSH C18 by Waters Co., 5 μm, 4.6×20 mm Guard Cartridge • Detection wavelength: 220 nm • Mobile phase A: 0.1% formic acid aqueous solution • Mobile phase B: 0.1% acetonitrile formate solution • Measuring time: 20 minutes • Measuring sample injection rate: 50 μL • Flow rate: 1.0 mL/min • Column temperature: 40° C. • Sample cooler: 25° C. • Mobile phase delivery: The mixing ratio of mobile phase A and mobile phase B was varied as shown in Table 14 for linear concentration gradient control.

[4] = 0.1% phosphate buffer pH 7.0, 40° C., 4 weeks (Table 4)

Molecule | survival rate after correction for water, 40° C. 4 week [1, 4] | survival rate after correction for water, 80° C. 8 week [2] | survival rate after correction for water, 60° C. 1 week preservation [3] | survival rate after correction for water, 60° C. 2 weeks preservation [3] | other results
CC[C@H](C)[C@H](NC(=O)CNC(=O)C(Cc1nnn[nH]1)NC(=O)[C@H](CO)NC(=O)[C@@H](N)Cc1c[nH]cn1)C(=O)N[C@@H](Cc1ccccc1)C(=O)N[C@@H](C)C(=O)NC(Cc1nnn[nH]1)C(=O)N[C@@H](C)C(=O)N[C@@H](Cc1ccc(O)cc1)C(=O)N[C@@H](CO)C(=O)N[C@@H](CCCNC(=N)N)C(=O)N[C@@H](Cc1ccc(O)cc1)C(=O)N[C@@H](CCCNC(=N)N)C(=O)N[C@@H](CCCCN)C(=O)N[C@@H](CCC(N)=O)C(=O)N[C@@H](CCSC)C(=O)N[C@@H](C)C(=O)N[C@H](C(=O)N[C@@H](CCCCN)C(=O)N[C@@H](CCCCN)C(=O)N[C@@H](Cc1ccc(O)cc1)C(=O)N[C@@H](CC(C)C)C(=O)N[C@@H](C)C(=O)N[C@@H](C)C(=O)N[C@H](C(=O)N[C@@H](CC(C)C)C(N)=O)C(C)C)C(C)C (some centres unmarked) [Peptide 1, HSTzGI FATzAY SRYRK QMAVK KYLAA VL] (H-HS[ξAla(tetrazol-5-yl)]GIFA[ξAla(tetrazol-5-yl)]AYSRYRKQMAVKKYLAAVL-NH2) | 91.1% | 81.5% |  |  | 
CC[C@H](C)[C@H](NC(=O)CNC(=O)C(Cc1nnn[nH]1)NC(=O)[C@H](CO)NC(=O)[C@@H](N)Cc1c[nH]cn1)C(=O)N[C@@H](Cc1ccccc1)C(=O)N[C@@H](C)C(=O)NC(Cc1nnn[nH]1)C(=O)N[C@@H](CO)C(=O)N[C@@H](Cc1ccc(O)cc1)C(=O)N[C@@H](C)C(=O)N[C@@H](CCCNC(=N)N)C(=O)N[C@@H](Cc1ccc(O)cc1)C(=O)N[C@@H](CCCNC(=N)N)C(=O)N[C@@H](CCCCN)C(=O)N[C@@H](CCC(N)=O)C(=O)N[C@@H](CCSC)C(=O)N[C@@H](C)C(=O)N[C@H](C(=O)N[C@@H](CCCCN)C(=O)N[C@@H](CCCCN)C(=O)N[C@@H](Cc1ccc(O)cc1)C(=O)N[C@@H](CC(C)C)C(=O)N[C@@H](C)C(=O)N[C@@H](C)C(=O)N[C@H](C(=O)N[C@@H](CC(C)C)C(N)=O)C(C)C)C(C)C (some centres unmarked) [Peptide 2, HSTzGI FATzSY ARYRK QMAVK KYLAA VL] (H-HS[ξAla(tetrazol-5-yl)]GIFA[ξAla(tetrazol-5-yl)]SYARYRKQMAVKKYLAAVL-NH2) | 91.9% | 83.7% |  |  | 
CC[C@H](C)[C@H](NC(=O)CNC(=O)C(Cc1nnn[nH]1)NC(=O)[C@H](CO)NC(=O)[C@@H](N)Cc1c[nH]cn1)C(=O)N[C@@H](Cc1ccccc1)C(=O)N[C@@H](C)C(=O)NC(Cc1nnn[nH]1)C(=O)NC(C)(C)C(=O)N[C@@H](Cc1ccc(O)cc1)C(=O)N[C@@H](CO)C(=O)N[C@@H](CCCNC(=N)N)C(=O)N[C@@H](Cc1ccc(O)cc1)C(=O)N[C@@H](CCCNC(=N)N)C(=O)N[C@@H](CCCCN)C(=O)N[C@@H](CCC(N)=O)C(=O)N[C@@H](CCSC)C(=O)N[C@@H](C)C(=O)N[C@H](C(=O)N[C@@H](CCCCN)C(=O)N[C@@H](CCCCN)C(=O)N[C@@H](Cc1ccc(O)cc1)C(=O)N[C@@H](CC(C)C)C(=O)N[C@@H](C)C(=O)N[C@@H](C)C(=O)N[C@H](C(=O)N[C@@H](CC(C)C)C(N)=O)C(C)C)C(C)C (some centres unmarked) [Peptide 4, HSTzGI FATzAiY SRYRK QMAVK KYLAA VL] (H-HS[ξAla(tetrazol-5-yl)]GIFA[ξAla(tetrazol-5-yl)][Aib]YSRYRKQMAVKKYLAAVL-NH2) | 95.4% | 88.4% |  |  | 
CC[C@H](C)[C@H](NC(=O)CNC(=O)C(Cc1nnn[nH]1)NC(=O)[C@H](CO)NC(=O)[C@@H](N)Cc1c[nH]cn1)C(=O)N[C@@H](Cc1ccccc1)C(=O)N[C@@H](C)C(=O)NC(Cc1nnn[nH]1)C(=O)N[C@@H](CO)C(=O)N[C@@H](Cc1ccc(O)cc1)C(=O)NC(C)(C)C(=O)N[C@@H](CCCNC(=N)N)C(=O)N[C@@H](Cc1ccc(O)cc1)C(=O)N[C@@H](CCCNC(=N)N)C(=O)N[C@@H](CCCCN)C(=O)N[C@@H](CCC(N)=O)C(=O)N[C@@H](CCSC)C(=O)N[C@@H](C)C(=O)N[C@H](C(=O)N[C@@H](CCCCN)C(=O)N[C@@H](CCCCN)C(=O)N[C@@H](Cc1ccc(O)cc1)C(=O)N[C@@H](CC(C)C)C(=O)N[C@@H](C)C(=O)N[C@@H](C)C(=O)N[C@H](C(=O)N[C@@H](CC(C)C)C(N)=O)C(C)C)C(C)C (some centres unmarked) [Peptide 5, HSTzGI FATzSY AiRYRK QMAVK KYLAA VL] (H-HS[ξAla(tetrazol-5-yl)]GIFA[ξAla(tetrazol-5-yl)]SY[Aib]RYRKQMAVKKYLAAVL-NH2) | 94.4% | 85.4% |  |  | 
CC[C@H](C)[C@H](NC(=O)CNC(=O)C(Cc1nnn[nH]1)NC(=O)[C@H](CO)NC(=O)[C@@H](N)Cc1c[nH]cn1)C(=O)N[C@@H](Cc1ccccc1)C(=O)N[C@@H](C)C(=O)NC(Cc1nnn[nH]1)C(=O)NC(C)(C)C(=O)N[C@@H](Cc1ccc(O)cc1)C(=O)NC(C)(C)C(=O)N[C@@H](CCCNC(=N)N)C(=O)N[C@@H](Cc1ccc(O)cc1)C(=O)N[C@@H](CCCNC(=N)N)C(=O)N[C@@H](CCCCN)C(=O)N[C@@H](CCC(N)=O)C(=O)N[C@@H](CCSC)C(=O)N[C@@H](C)C(=O)N[C@H](C(=O)N[C@@H](CCCCN)C(=O)N[C@@H](CCCCN)C(=O)N[C@@H](Cc1ccc(O)cc1)C(=O)N[C@@H](CC(C)C)C(=O)N[C@@H](C)C(=O)N[C@@H](C)C(=O)N[C@H](C(=O)N[C@@H](CC(C)C)C(N)=O)C(C)C)C(C)C (some centres unmarked) [Peptide 6, HSTzGI FATzAiY AiRYRK QMAVK KYLAA VL] (H-HS[ξAla(tetrazol-5-yl)]GIFA[ξAla(tetrazol-5-yl)][Aib]Y[Aib]RYRKQMAVKKYLAAVL-NH2) | 94.0% | 87.5% |  |  | 
CCCC[C@H](NC(=O)[C@H](CCC(N)=O)NC(=O)[C@H](CCCCN)NC(=O)[C@H](CCCNC(=N)N)NC(=O)[C@H](Cc1ccc(O)cc1)NC(=O)[C@H](CCCNC(=N)N)NC(=O)[C@H](CO)NC(=O)[C@H](Cc1ccc(O)cc1)NC(=O)[C@H](CO)NC(=O)[C@H](Cc1noc(=O)[nH]1)NC(=O)[C@@H](NC(=O)[C@H](Cc1ccccc1)NC(=O)[C@@H](NC(=O)CNC(=O)[C@H](Cc1noc(=O)[nH]1)NC(=O)[C@H](CO)NC(=O)[C@H](Cc1c[nH]cn1)NC(C)=O)[C@@H](C)CC)[C@@H](C)O)C(=O)N[C@@H](C)C(=O)N[C@H](C(=O)N[C@@H](CCCCN)C(=O)N[C@@H](CCCCN)C(=O)N[C@@H](Cc1ccc(O)cc1)C(=O)N[C@@H](CC(C)C)C(=O)N[C@@H](C)C(=O)N[C@@H](C)C(=O)N[C@H](C(=O)N[C@@H](CC(C)C)C(N)=O)C(C)C)C(C)C [Peptide 22, HS(50xa)GI FT(50xa)SY SRYRK QNIAVK KYLAA VL] (Ac-HS[X2]GIFT[X2]SYSRYRKQ[Nle]AVKKYLAAVL-NH2) |  |  |  |  | survival rate after correction for water, 40° C. 1 week ([1]; phosphate buffer pH 7.0, 40° C., 1 week (Table 10)): 89.7%; survival rate after correction for water, 40° C. 4 week ([1]; phosphate buffer pH 7.0, 40° C., 4 weeks (Table 10)): 79.7%
HSTzGIFTTzSYSRYRKQLAVKKYLAAVL [Reference Example 4] |  |  | 91.7% | 84.8% | 
HSTzGIFTTzSYSRYRKQLAVKKYLAAVL [Reference Example 6] (HSXGIFTXSYSRYRKQLAVKKYLAAVL; N-acetyl; C-terminal amide; Tz residues; modified PACAP peptide; MOD_RES (1)..(1) …ON; MUTAGEN (3)..(3) Xaa is amino acid wherein carboxy group of asparatic acid is substituted with tetrazole; MUTAGEN (8)..(8) Xaa is amino acid wherein carboxy group of asparatic acid is substituted with tetrazole) |  |  | 98.4% | 92.8% | 
HSTzGIFTTzSYSRYRKQNIAVKKYLAAVL [Reference Example 3] |  |  | 91.3% | 82.4% | 
HSTzGIFTTzSYSRYRKQNIAVKKYLAAVL [Reference Example 5] (HSXGIFTXSYSRYRKQXAVKKYLAAVL; N-acetyl; C-terminal amide; Tz residues; modified PACAP peptide; MOD_RES (1)..(1) …ON; MUTAGEN (3)..(3) Xaa is amino acid wherein carboxy group of asparatic acid is substituted with tetrazole; MUTAGEN (8)..(8) Xaa is amino acid wherein carboxy group of asparatic acid is substituted with tetrazole; MUTAGEN (17)..(17) Xaa is Nle) |  |  | 98.1% | 92.9% | 

From patent US20250263459A1, “STABILIZED PACAP PEPTIDE” (SENJU PHARMACEUTICAL CO., LTD., priority 2019, published 2025)
